Structures are written as SMILES. Activity calls are given as the source filed them. No rule for the calls is given here.

Drawing on PubChem BioAssay AID1159557 (GlaxoSmithKline (GSK), 2015), this text covers IC50 for 68 compounds.

The assay relates to Trypanosoma brucei growth inhibition. In words: trypanosome proliferation inhibitors (AID 1159557).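 Also: parasites exposed to compound for 48 h before the resazurin readout.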
A word on the IC50: it is the midpoint of a concentration-inhibition curve. With `CC(c1ccccn1)N(C)Cc1nc2ccccc2n1C(C)C` (stereo not drawn), the IC50 is 13 µM.

`COc1cc(F)c2ncc(F)c(CCN3CC[C@H](NCc4cc5c(cn4)OCS5)[C@@H](O)C3)c2c1`: the IC50 was 0.25 µM.

Regarding `COc1ccc(NS(=O)(=O)c2cc(NC(=O)Cc3ccc(C)cc3)ccc2N2CCOCC2)cc1`, the IC50 was 5 µM.

Take `Cc1ccc(Nc2nc(N)nc(CNC(c3nc4ccccc4[nH]3)C(C)C)n2)cc1` (stereo not drawn): the half-inhibitory concentration (IC50) was 7.9 µM.

As for `Cn1nccc1-c1cc(OC(CN)c2ccccc2)cnc1-c1ccco1` (stereo not drawn), the IC50 is 13 µM.

In the case of `Cc1[nH]n2c(=O)c3c(nc2c1-c1ccc(Cl)cc1)CCCC3`, the concentration for half-maximal inhibition (IC50) is 0.16 µM.

Take `O=c1cc(NCCCNCc2cc(C(F)(F)F)cs2)[nH]c2ccccc12`: the IC50 is 0.32 µM.

With `Cn1nc([N+](=O)[O-])nc1Oc1ccc(C(=O)c2ccccc2)cc1`, the IC50 was 20 µM.

With `CC(=Cc1ccccc1)CN1CCC(=O)N(Cc2cccnc2)CC1`, the IC50 was > 40 µM (inactive).

In the case of `COc1ccc2ncc(=O)n(CCN3CCOC(CNCc4ccc(C(F)(F)F)cc4F)C3)c2n1` (stereo not drawn), the IC50 was 0.63 µM.

Regarding `CC(C)S(=O)(=O)c1ccc(-c2cnc(N)c3cc(-c4ccnc(N)n4)ccc23)cc1`, the IC50 is 0.2 µM.

In the case of `CCCCc1cc(Nc2cc(C3CCC3)[nH]n2)nc(N2CCC2C(N)=O)n1` (stereo not drawn), the IC50 is 0.13 µM.

Consider `CCCc1nc2nc(N)nc(N)c2cc1CC`, for which the IC50 is 20 µM.

For the compound `Cc1c(C(C)NC(=O)Nc2cccc(Cl)c2)sc2ncnn12` (stereo not drawn), the IC50 was 20 µM.

Take `Cc1cc(C)nc(N2CCC(N(Cc3cccnc3)C(=O)c3cccc(C#N)c3)CC2)n1`: the IC50 is > 40 µM (inactive).

`O=C(C1CCCCC1)N1CCN(c2nnc(-c3ccccc3)c3ccccc23)CC1`: the IC50 was 10 µM.

As for `Cn1nccc1NC(=O)Cn1ccc(-c2ccncc2)n1`, the IC50 was 0.63 µM.

Regarding `CC(=O)NCCNc1cc(-c2ccnc(Nc3cccc(Cl)c3)n2)ccn1`, the 50% inhibitory concentration (IC50) was 0.2 µM.

Turning to `COc1ccc2nccc([C@H](O)CN3CC[C@H](NC(=O)c4ccc(Br)cc4)[C@@H](O)C3)c2n1`, the IC50 is 0.2 µM.

On to `CN(CCOc1ccc(Cl)cc1)Cc1nc(N)nc(N(C)C)n1`, for which the IC50 was 25 µM.

With `CCC(=O)Nc1ccccc1C(=O)Nc1ccccn1`, the IC50 was 0.32 µM.

Consider `CCN(CC)S(=O)(=O)c1ccc(Cn2nc(C(=O)Nc3ccncn3)c3ccccc32)cc1`, for which the half-inhibitory concentration (IC50) is 32 µM.

`CC(C)(C)c1csc(NC(=O)c2ccc([N+](=O)[O-])s2)n1`: the concentration for half-maximal inhibition (IC50) was 0.2 µM.

`COc1ccc(C2CC(c3ccccc3Cl)=NN2C(=O)CNC(=O)C2CCC2)cc1` (stereo not drawn): the half-inhibitory concentration (IC50) is 0.32 µM.

As to `COc1ccccc1-c1c(C)[nH]c2nc(N)nc(C)c12`, the IC50 is 25 µM.

As to `O=C(NCCc1csc(-c2ccc(F)cc2)n1)c1ccco1`, the IC50 is 0.4 µM.

For `COc1cccc2sc(CN(C)C(=O)C3CNCCN3c3ccc(F)cc3)c(C)c12` (stereo not drawn), the IC50 is 0.16 µM.

Regarding `Cc1sc(C)c(C(F)(F)F)c1CNCCCNc1cc(=O)c2ccccc2[nH]1`, the half-maximal inhibitory concentration (IC50) was 0.01 µM.

As to `COc1cccc(CN(C)Cc2nc(N)c3c(C)c(C)sc3n2)c1`, the IC50 is 5 µM.

As for `COc1ccc2ncc(F)c(CCN3CC[C@@H](NC(=O)c4cc5c(s4)CCC5)[C@@H](O)C3)c2n1`, the IC50 is 0.1 µM.

In the case of `Cc1ccc(Nc2nc(-c3ccccn3)cc(N3CCCC(O)C3)n2)cc1` (stereo not drawn), the IC50 was 3.2 µM.

Regarding `CCn1nccc1CN(C)C(=O)C=Cc1ccc(Cl)cc1`, the concentration for half-maximal inhibition (IC50) is 32 µM.

Take `O=C1CCCCCC1(Cc1cnc[nH]1)c1ccc(Cl)cc1Cl` (stereo not drawn): the IC50 was > 40 µM (inactive).

As to `Cc1ccc(S(C)(=O)=O)cc1Nc1nccc(-c2sc(N)nc2-c2ccccc2)n1`, the IC50 is 0.79 µM.

On to `O=C(Nc1nc2cc(Cl)ccc2o1)c1cccc(Cl)c1`, for which the IC50 is 0.79 µM.

In the case of `COc1ccnc2[nH]cc(-c3cc(C(=O)N[C@H](CO)c4ccccc4)co3)c12`, the IC50 was 0.005 µM.

In the case of `Cc1cc2nc(CN(C)Cc3ncccc3C)[nH]c2cc1C`, the IC50 is 0.63 µM.

Regarding `CS(=O)(=O)c1ccc(Nc2nccc(Nc3n[nH]c4ccc(F)cc34)n2)c(F)c1`, the 50% inhibitory concentration (IC50) is 0.5 µM.

Turning to `O=C(Nc1n[nH]c(-c2ccccn2)n1)C1CC1c1ccccc1` (stereo not drawn), the IC50 is > 13 µM (inactive).

Turning to `Nc1nccc(-c2csc(Nc3ccc(Cl)cc3)n2)n1`, the IC50 was > 40 µM (inactive).

In the case of `CCC(CC)C(=O)Nc1cccc(C(=O)Nc2nnc(C3CCCCC3)s2)c1`, the IC50 was 0.25 µM.

As to `NC(=O)c1ccsc1NC(=O)c1ccc([N+](=O)[O-])s1`, the 50% inhibitory concentration (IC50) was 0.2 µM.

In the case of `O=c1ccn(-c2ccc([N+](=O)[O-])cc2Cl)c2ccc(F)cc12`, the half-inhibitory concentration (IC50) is 25 µM.

Turning to `CCOc1ccc(NC(=O)C=Cc2ccc(CC)o2)cc1`, the IC50 was 16 µM.

On to `CC(C)Nc1nccc(-c2c(-c3ccc(F)cc3)ncn2C2CCOCC2)n1`, for which the IC50 was 5 µM.

For the compound `O=C(Cc1ccccc1)Nc1[nH]nc2sc(C(=O)NC3CCCC3)cc12`, the IC50 was 0.4 µM.

Regarding `COc1cc2c(cc1OC)[C@H]1[C@@H](C)c3ccc(OC)c(OC)c3CN1CC2`, the 50% inhibitory concentration (IC50) was 25 µM.

As to `COc1cnc2ccc(=O)n(CCN3CCC(NC(=O)c4ccc(Cl)cc4)CC3)c2c1`, the IC50 is 0.079 µM.

With `c1cncc(CN(Cc2ccco2)Cc2cn[nH]c2-c2cccs2)c1`, the IC50 was 25 µM.

As for `O=C(CSc1ccc(F)cc1)N[C@@H](Cc1cnc[nH]1)C(=O)NCCc1ccccc1`, the IC50 was > 40 µM (inactive).

As to `O=C(Nc1ccc(-c2nc3ccccc3c(=O)[nH]2)cc1)c1cccs1`, the IC50 was 0.25 µM.

As for `Cc1cc(=O)n2nc(Oc3ccc(C#N)cc3Cl)sc2n1`, the IC50 was 0.63 µM.

Regarding `CNC(=O)C1Cc2ccccc2N1C(=O)Cc1ccc(OC)cc1` (stereo not drawn), the IC50 is 0.4 µM.

`CN(C)Cc1ccc(N2CCC(NS(=O)(=O)c3ccc(Cl)cc3)CC2)cc1`: the IC50 was 25 µM.

In the case of `Cc1ccc2onc(Nc3ccnc(Nc4cccc(S(C)(=O)=O)c4)n3)c2c1`, the IC50 is 6.3 µM.

As for `CCOc1ccc(NC(=O)c2ccc(NC(=O)NC3CCCCC3)cc2)cc1`, the IC50 is 0.2 µM.

For the compound `COc1ccc(C(=O)[C@H]2C[C@@H]2CN(Cc2ccccn2)Cc2ccccn2)cc1`, the IC50 is 6.3 µM.

As for `CCNc1cc(-c2ccccn2)nc(Nc2ccc(OC)cc2)n1`, the half-inhibitory concentration (IC50) was 13 µM.

For `CN(C)CCN(C)Cc1ccc(Cl)cc1NS(=O)(=O)c1ccc(Cl)c(Cl)c1`, the IC50 is 7.9 µM.

Regarding `c1ccc2[nH]c(-c3ccc(N4CCCC4)nc3)nc2c1`, the IC50 was 0.79 µM.

`N#Cc1cccc(CN2CCC(N(Cc3cccnc3)C(=O)c3cc(F)c(F)cc3F)CC2)c1`: the IC50 was > 40 µM (inactive).

For the compound `CS(=O)(=O)c1cccc(CNC(=O)c2cncc(N3CCN(c4ccc(F)cc4)CC3)c2)c1`, the IC50 is 32 µM.

On to `O=C(Nc1cccc(Cl)c1)Nc1ccc([N+](=O)[O-])cc1Cl`, for which the IC50 was 2.5 µM.

As to `CC(C)c1cc(Nc2cc(Cc3ccccc3)nc(NC3CCC(O)CC3)n2)n[nH]1` (stereo not drawn), the IC50 was 0.079 µM.

Consider `COc1ccc(C)cc1-c1csc(NC(=O)C(C)n2ccnc2)n1` (stereo not drawn), for which the concentration for half-maximal inhibition (IC50) is 25 µM.

Regarding `O=C(Nc1cccc(S(=O)(=O)Nc2ccc(Br)cc2)c1)c1ccc([N+](=O)[O-])s1`, the IC50 is 0.2 µM.

As for `Cc1c([N+](=O)[O-])c(C(=O)Nc2sc3c(c2C#N)CCC(C)C3)nn1C` (stereo not drawn), the IC50 is > 40 µM (inactive).

For the compound `OCC1CCCCN1c1cc(-c2ccccn2)nc(Nc2ccccc2)n1` (stereo not drawn), the concentration for half-maximal inhibition (IC50) was 5 µM.
